The text below walks through data of publication PMC5507300, “Antibacterial small molecules targeting the conserved TOPRIM domain of DNA gyrase” (PLoS ONE, 2017).

Holding throughout (assay type): cell-based
One data set relates to E. coli CIP101 GyrA D87N. Kind of data set: microbe, parasite or virus in culture. The conditions noted are these: Escherichia coli. The method, then:
(§1) Compound doubling dilutions were prepared in 100% DMSO (Sigma Aldrich) and 2 μL of each dilution was transferred to a 96-well plate with lid (Thermo Scientific). Inoculum for all MIC testing was prepared using the BBL Prompt Inoculation System (Becton Dickinson, Franklin Lakes, NJ USA) as described by the manufacturer to produce a suspension of cells at approximately 1.5 x 10^8 colony forming units (CFU)/mL [34–36] and a further dilution (1:1000) was made into cation adjusted Mueller-Hinton broth (CAMH broth, Becton-Dickinson). One hundred μL of this inoculum were then transferred to each well of the 96-well plate containing diluted compound (above). Plates were covered and incubated overnight (18 hrs.) at 37°C.

The subject of data set [1] is E. coli GYR103 GyrB L446Q. Kind of data set: microbe, parasite or virus in culture. The following applies: Escherichia coli.
From the text: (§2) E. coli HS151 (ΔtolC) has been described previously. Gyrase inhibitor-resistant isolates (GYR101-108) were derived by selection for spontaneous resistance to MRL-770 or MRL-423 (Fig 1) in E. coli HS151 as described below. E. coli BW25113 and the Keio gene deletion collection based on BW25113 [25] were obtained from Thermo Fisher Scientific (Waltham, MA) and described in [26]. The plasmid-borne FQ resistance determinant, qnrVC3 [27], was kindly provided by D. Hooper (Massachusetts General Hospital). MB9796 (A. baumannii) is a derivative of MB9797 (ATCC19606) lacking lipopolysaccharide. The efflux-defective P. aeruginosa strain MB5890 (CB398) is a derivative of MB5919 (PAO1). MB2884 (E. coli) and CL15245 (K. pneumoniae) are clinical isolates from the Merck & Co., Inc., Kenilworth, NJ, USA, strain collection. S. aureus COL is a methicillin-resistant clinical isolate.
as §1
After the agar solidified, 5 μL of a saturated bacterial culture, grown in CAMH broth, were dispensed on the agar surface and allowed to dry at room temperature. […] To select for resistance, a 100 mm petri dish was filled with 25 mL CAMH agar containing 8 μg/mL MRL-770 or 0.5 μg/mL MRL-423 (Fig 1). The cells in 1 mL of an overnight culture of E. coli HS151 (~10^9 CFU/mL) were concentrated by centrifugation and spread onto the surface of an MRL-770 or MRL-423 containing plate. After the surface dried at room temperature the plate was incubated at 37°C overnight. Any colonies that arose were counted and an approximate frequency of resistance was calculated after confirming resistance by restreaking on media containg compound as well as measuring MICs (see Results). Genomic DNA from the parent strain (E. coli HS151) and purified (restreaked) resistant isolates was obtained with a GeneJET genomic DNA purification kit according to the manufacturer’s instructions (Fisher Scientific). Assembled whole genome mutant sequences were then compared to the parent strain and polymorphisms were identified as described.

Data set [2] relates to E. coli MB2884 (clinical isolate). Description: Broth microdilution MIC, E. coli MB2884. The conditions noted are these: Escherichia coli.
From the text: (§3) E. coli HS151 (ΔtolC) has been described previously. […] E. coli BW25113 and the Keio gene deletion collection based on BW25113 [25] were obtained from Thermo Fisher Scientific (Waltham, MA) and described in [26]. The plasmid-borne FQ resistance determinant, qnrVC3 [27], was kindly provided by D. Hooper (Massachusetts General Hospital). […] MB2884 (E. coli) and CL15245 (K. pneumoniae) are clinical isolates from the Merck & Co., Inc., Kenilworth, NJ, USA, strain collection. S. aureus COL is a methicillin-resistant clinical isolate.
as §1
On the technique in general: Dilution methods test growth across graded concentrations, often in twofold steps.

In data set [3] the test system is A. baumannii ΔlpxC MB9796. Description: Broth microdilution MIC, A. baumannii MB9796. The following applies: Acinetobacter baumannii.
From the text: as §2, §1

Data set [4] deals with P. aeruginosa MB5919 (PAO1). Description: Broth microdilution MIC, P. aeruginosa MB5919. The conditions noted are these: Pseudomonas aeruginosa.
From the text: as §3, §1

The subject of data set [5] is K. pneumoniae CL15245 (clinical isolate). Description: Broth microdilution MIC, K. pneumoniae CL15245. The following applies: Klebsiella pneumoniae.
From the text: as §3, §1

Another data set has as its system HeLa Cell. Kind of data set: HeLa cell cytotoxicity. The conditions noted are these: for EC50: Homo sapiens, HeLa, Average value (n = 2), cytotoxicity; for Fold above MIC: HeLa EC50 relative to MIC for E. coli HS151.
Data set [6] concerns A. baumanii MB9797 (ATCC19606). Description: Broth microdilution MIC, A. baumannii MB9797. The following applies: Acinetobacter baumannii.
From the text: as §2, §1

The next data set relates to E. coli HS151 (ΔtolC). Description: microbe, parasite or virus in culture. The conditions noted are these: Escherichia coli.
From the text: as §3, §1

The subject of data set [7] is P. aeruginosa(effluxΔ) MB5890. Kind of data set: microbe, parasite or virus in culture. The following applies: Pseudomonas aeruginosa.
From the text: as §3, §1

Another data set relates to S. aureus (MRSA) COL. Description: Broth microdilution MIC, S. aureus COL. The following applies: Staphylococcus aureus, MRSA.
From the text: as §2, §1

Data set [8] relates to E. coli GYR108 GyrB L470I/V467L. Description: microbe, parasite or virus in culture. The following applies: Escherichia coli.
From the text: as §3, §1
(§4) After the agar solidified, 5 μL of a saturated bacterial culture, grown in CAMH broth, were dispensed on the agar surface and allowed to dry at room temperature. […] After the surface dried at room temperature the plate was incubated at 37°C overnight. […] Genomic DNA from the parent strain (E. coli HS151) and purified (restreaked) resistant isolates was obtained with a GeneJET genomic DNA purification kit according to the manufacturer’s instructions (Fisher Scientific). Assembled whole genome mutant sequences were then compared to the parent strain and polymorphisms were identified as described.

The subject of data set [9] is E. coli GYR105 GyrB T469K. Description: microbe, parasite or virus in culture. The following applies: Escherichia coli.
From the text: as §3, §1, §4

The test system of data set [10] is E. coli GYR104 GyrB L470I. Description: microbe, parasite or virus in culture. The conditions noted are these: Escherichia coli.
From the text: as §3, §1, §4

In data set [11] the test system is E. coli GYR102 GyrB E466EV. Description: microbe, parasite or virus in culture. The conditions noted are these: Escherichia coli.
From the text: as §3, §1, §4

Data set [12] has as its system E. coli GYR101 GyrB F513L. Kind of data set: microbe, parasite or virus in culture. The conditions noted are these: Escherichia coli.
From the text: as §3, §1, §4

Data set [13] relates to E. coli GYR106 GyrB F513L/A468V. Kind of data set: microbe, parasite or virus in culture. The following applies: Escherichia coli.
From the text: as §3, §1, §4

Data set [14] relates to E. coli GYR107 GyrB F513L/L422V. Kind of data set: microbe, parasite or virus in culture. The following applies: Escherichia coli.
From the text: as §3, §1, §4

The mark [15] stands for this setting: Table 2, HS151, GyrB mutation none.
Setting [16] is: read-out: E. coli HS151 MIC, S1 Table.

SMILES strings stand for the structures. Converted amounts (≈) assume the structure as drawn. “And” between values parts separate entries of the source, which are not always exact repeats. Equal entries are not always repeated. Where two headings read alike, the source gives them in different places. Some results are limits rather than exact numbers.

For orientation: EC50 means the midpoint of the concentration-response curve. The low end stands for an effect from little substance, the high end for a need for much substance. In the case of `Cn1ncc2cc(-c3cnnn3C3CCN(C(=O)Nc4cc(Cl)cc(Cl)c4)CC3)ccc21` [MRL-423], the MIC against E. coli CIP101 GyrA D87N was 0.25 µg/mL (≈ 0.532 µM); in data set [1], 0.5 µg/mL (≈ 1.06 µM); in data set [2], above 64 µg/mL; in data set [3] it was 0.5 µg/mL (≈ 1.06 µM); in [4] it was above 64 µg/mL; in [5], above 64 µg/mL. In addition, the MIC was above 64 µg/mL in data set [6]; 0.25 µg/mL against E. coli HS151 (ΔtolC) (Table 1, HS151 E. coli ΔtolC); 0.25 µg/mL with E. coli HS151 (ΔtolC) (setting [15]); 0.25 µg/mL against E. coli HS151 (ΔtolC) (Table 3, HS151); 0.53 µM with E. coli HS151 (ΔtolC) (setting [16]); 1 µg/mL (≈ 2.13 µM) in data set [7]. Moreover, the MIC against S. aureus (MRSA) COL was above 64 µg/mL; in data set [8] it was above 64 µg/mL; in data set [9], 1 µg/mL (≈ 2.13 µM); in data set [10] it was 1 µg/mL (≈ 2.13 µM); in [11], above 64 µg/mL; in data set [12], 2 µg/mL (≈ 4.25 µM). Further, the MIC in [13] and in data set [14] was above 64 µg/mL throughout. Moreover, the EC50 in the data set with HeLa Cell turned out to be 27.1 µM.

For the compound `COc1ccc(C)cc1NC(=O)N1CCC(n2nncc2-c2ccc3c(cnn3C)c2)CC1` [MRL-770], the MIC against E. coli CIP101 GyrA D87N is 2 µg/mL (≈ 4.49 µM); in data set [1], above 64 µg/mL; in [2] it was above 64 µg/mL; in data set [3], 4 µg/mL (≈ 8.98 µM); in [4] it was above 64 µg/mL; in data set [5] it was above 64 µg/mL. The MIC in data set [6] is above 64 µg/mL; in the data set on E. coli HS151 (ΔtolC) (Table 1, HS151 E. coli ΔtolC), 2 µg/mL; against E. coli HS151 (ΔtolC) (setting [15]) it was 2 µg/mL; with E. coli HS151 (ΔtolC) (setting [16]), 4.5 µM; in the data set on E. coli HS151 (ΔtolC) (read-out: minimum inhibitory concentration (MIC), quoted in text with macromolecule labeling in E. coli JL553, strain not named at place, value equals HS151), 4.5 µM and 2 µg/mL; in [7], 4 µg/mL (≈ 8.98 µM). Besides, the MIC with S. aureus (MRSA) COL is above 64 µg/mL; in data set [8], above 64 µg/mL; in [9], 1 µg/mL (≈ 2.24 µM); in data set [10] it was above 64 µg/mL; in [11], above 64 µg/mL; in [12] it was above 64 µg/mL. The MIC in data set [13] and in data set [14] was above 64 µg/mL throughout. In addition, the “Fold above MIC” value with HeLa Cell was above 22 fold. Also, the EC50 with HeLa Cell was above 100 µM.

Take `Cn1ncc2cc(-c3nnnn3C3CCN(C(=O)Nc4ccc(Cl)c(Cl)c4)CC3)ccc21` [MRL-1082]: the MIC against E. coli CIP101 GyrA D87N is 0.125 µg/mL (≈ 0.265 µM); in data set [1], 0.0625 µg/mL (≈ 0.133 µM); in data set [2] it was above 64 µg/mL; in data set [3], 0.5 µg/mL (≈ 1.06 µM); in [4], above 64 µg/mL; in data set [5], above 64 µg/mL. Further, the MIC was above 64 µg/mL in [6]; 0.0625 µg/mL against E. coli HS151 (ΔtolC) (Fig 4 legend, E. coli HS151); 0.0625 µg/mL in the data set on E. coli HS151 (ΔtolC) (Table 1, HS151 E. coli ΔtolC); 0.0625 µg/mL with E. coli HS151 (ΔtolC) (setting [15]); 0.13 µM in the data set on E. coli HS151 (ΔtolC) (setting [16]); 0.25 µg/mL (≈ 0.53 µM) in data set [7]. Also, the MIC was above 64 µg/mL in the data set on S. aureus (MRSA) COL; 2 µg/mL (≈ 4.24 µM) in [8]; 0.25 µg/mL (≈ 0.53 µM) in data set [9]; 0.25 µg/mL (≈ 0.53 µM) in data set [10]; 8 µg/mL (≈ 17 µM) in [11]; above 64 µg/mL in [12]. Further, the MIC in data set [13] and in [14] was above 64 µg/mL each time. Also, the “Fold above MIC” value in the data set on HeLa Cell is 140 fold. In the data set with HeLa Cell, this compound had an EC50 of 18.2 µM.
